GI50 and TGI data for nine molecules are collected here from PubChem BioAssay (NCI).

Among the test systems are HS 578T breast; COLO 205 colon; SK-MEL-2 melanoma; OVCAR-5 ovarian; SF-268 CNS; HCT-116 colon; UO-31 renal; A549 NSCLC; BT-549 breast; CCRF-CEM leukemia.
Assay in all cases: DTP human tumour cell line panel, 48 h

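A five-concentration, 48-hour dose response in 96-well plates underlies each endpoint, interpolated linearly between surrounding concentrations. GI50 = concentration required for 50% inhibition of growth. TGI denotes the concentration required for complete inhibition of growth.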

As for `CCN(CC)CCn1c2ccc(OC)cc2c2sc3cc(OC)ccc3c(=O)c21`, the GI50 was 1.96 µM with HS 578T breast; 1.39 µM with COLO 205 colon; 2.1 µM in the assay on SK-MEL-2 melanoma; 1.92 µM in the assay with OVCAR-5 ovarian; 1.87 µM in the assay with SF-268 CNS; 0.659 µM with HCT-116 colon. The GI50 in the assay with UO-31 renal is 1.35 µM; in the assay on A549 NSCLC, 1.59 µM; with BT-549 breast, 2.24 µM. Besides, the TGI in the assay on HS 578T breast came out at 4.98 µM; with COLO 205 colon, 3.32 µM; with SK-MEL-2 melanoma, 4.68 µM; with OVCAR-5 ovarian, 4.92 µM; in the assay with SF-268 CNS, 5.35 µM; in the assay on HCT-116 colon, 2.02 µM. The figures for the TGI in the assay with UO-31 renal, in the assay on A549 NSCLC and in the assay with BT-549 breast were 3.02 µM, 5.71 µM and 5.95 µM, respectively.

As to `COc1ccc(-c2ccc(-c3ccc(C(=N)N)cn3)o2)cc1Cl`, the GI50 was 1.42 µM in the assay with CCRF-CEM leukemia; 2.08 µM with HS 578T breast; 1.66 µM with COLO 205 colon; 2.12 µM in the assay on SK-MEL-2 melanoma; 1.74 µM in the assay on OVCAR-5 ovarian; 2.67 µM with SF-268 CNS. Also, the figures for the GI50 in the assay on UO-31 renal, in the assay with A549 NSCLC and with BT-549 breast were 1.43 µM, 2.59 µM and 1.75 µM, respectively. Further, the TGI with CCRF-CEM leukemia was 3.78 µM; in the assay on HS 578T breast it was 6.18 µM; with COLO 205 colon it was 3.18 µM; in the assay with SK-MEL-2 melanoma it was 3.81 µM; with OVCAR-5 ovarian, 3.38 µM; in the assay on SF-268 CNS, 8.38 µM. The TGI stood at 2.76 µM in the assay on UO-31 renal, 6.56 µM with A549 NSCLC and 3.21 µM with BT-549 breast.

As for `CCCCCCCCCCCCCCCCCCOc1ccccc1CC(=O)NCC[N+](C)(C)C`, the GI50 with HS 578T breast was 4.26 µM; in the assay with SK-MEL-2 melanoma, 12.7 µM; in the assay with OVCAR-5 ovarian, 2.68 µM; in the assay with SF-268 CNS, 3.34 µM; with HCT-116 colon it was 7.58 µM; in the assay with UO-31 renal, 17.9 µM. In addition, the values for the GI50 in the assay on A549 NSCLC and in the assay with BT-549 breast were 4.91 µM and 3.25 µM, respectively. In addition, the TGI with HS 578T breast was more than 100 µM; in the assay on SK-MEL-2 melanoma, 44.7 µM; in the assay on OVCAR-5 ovarian, 12.8 µM; with SF-268 CNS, 39.9 µM; in the assay with HCT-116 colon it was more than 100 µM; in the assay with UO-31 renal it was 80.4 µM. The results for the TGI with A549 NSCLC and with BT-549 breast were 51.8 µM and more than 100 µM, respectively.

With `O=C1c2ccccc2-c2c1c1ccc([N+](=O)[O-])cc1c(=O)n2CCCNCCO`, the GI50 with CCRF-CEM leukemia is 0.023 µM; in the assay with HS 578T breast, 1.11 µM; in the assay on COLO 205 colon, 1.05 µM; in the assay with SK-MEL-2 melanoma it was 1.69 µM; in the assay on OVCAR-5 ovarian, 0.52 µM; with SF-268 CNS, 0.148 µM. Moreover, the GI50 with HCT-116 colon was 0.0612 µM; with UO-31 renal it was 0.0989 µM; in the assay on A549 NSCLC, 0.946 µM. The TGI with CCRF-CEM leukemia came to 1.09 µM; in the assay on HS 578T breast, 4.39 µM; with COLO 205 colon, 2.81 µM; with SK-MEL-2 melanoma, 3.82 µM; in the assay with OVCAR-5 ovarian, 1.92 µM; with SF-268 CNS it was 1.99 µM. The TGI with HCT-116 colon was determined as 0.441 µM; with UO-31 renal, 1.06 µM; in the assay on A549 NSCLC it was 8.75 µM.

Take `CNC1=C(C(=O)OC)SC(c2ccccc2)(c2ccccc2)SC1`: the GI50 in the assay on HS 578T breast is 28.1 µM; with COLO 205 colon it was 23.9 µM; with SK-MEL-2 melanoma, 7.06 µM; in the assay on OVCAR-5 ovarian it was more than 100 µM; in the assay on SF-268 CNS, 18.9 µM; in the assay with HCT-116 colon it was 9.22 µM. Also, the GI50 with UO-31 renal was more than 100 µM; with A549 NSCLC, 9.63 µM; in the assay on BT-549 breast, 29.5 µM. For the same molecule, the TGI in the assay with HS 578T breast is more than 100 µM; in the assay on COLO 205 colon, more than 100 µM; in the assay with SK-MEL-2 melanoma, 85.8 µM; with OVCAR-5 ovarian, more than 100 µM; in the assay on SF-268 CNS, more than 100 µM; with HCT-116 colon it was more than 100 µM. The TGI in the assay with UO-31 renal, in the assay on A549 NSCLC and in the assay on BT-549 breast was more than 100 µM in each case.

As to `Nc1c(C(=O)N/N=C/c2ccc(-c3cc(Cl)c(Cl)cc3Cl)o2)cnn1-c1ccnc2c(C(F)(F)F)cccc12`, the GI50 in the assay on CCRF-CEM leukemia is 3.9 µM; in the assay on HS 578T breast, 5.04 µM; with COLO 205 colon, 2.57 µM; with SK-MEL-2 melanoma, 5.31 µM; in the assay on OVCAR-5 ovarian, 5.29 µM; in the assay with SF-268 CNS, 5.2 µM. Moreover, the GI50 with HCT-116 colon was 3.42 µM; with UO-31 renal, 3.49 µM; in the assay on A549 NSCLC it was 4.3 µM. Moreover, the TGI with CCRF-CEM leukemia was more than 100 µM; with HS 578T breast, more than 100 µM; in the assay on COLO 205 colon it was 5.78 µM; with SK-MEL-2 melanoma it was 34.3 µM; with OVCAR-5 ovarian, more than 100 µM; in the assay on SF-268 CNS, more than 100 µM. In addition, the TGI with HCT-116 colon, in the assay on UO-31 renal and in the assay on A549 NSCLC was more than 100 µM throughout.

For `CCC1(NC(=O)c2cc(F)c(F)c(F)c2F)C(=O)NC(=O)N(C(C)C)C1=O` (configuration not stated), the GI50 in the assay on CCRF-CEM leukemia is 19.8 µM; in the assay on HS 578T breast it was 12 µM; with COLO 205 colon, 27.5 µM; with OVCAR-5 ovarian it was more than 100 µM; in the assay on SF-268 CNS, 19.1 µM; with HCT-116 colon, 22.5 µM. In addition, the GI50 in the assay on UO-31 renal is more than 100 µM; in the assay on A549 NSCLC, 50.7 µM; in the assay with BT-549 breast, 20 µM. The TGI is 75.3 µM in the assay on CCRF-CEM leukemia; 37.2 µM in the assay on HS 578T breast; more than 100 µM with COLO 205 colon; more than 100 µM in the assay with OVCAR-5 ovarian; 37 µM in the assay with SF-268 CNS; 51.5 µM with HCT-116 colon. In addition, the TGI in the assay on UO-31 renal is more than 100 µM; in the assay on A549 NSCLC, more than 100 µM; in the assay with BT-549 breast, 44.1 µM.

Regarding `OCC(CCc1c[nH]c2ccccc12)c1c[nH]c2ccccc12` (configuration not stated), the TGI with HS 578T breast turned out to be 48.6 µM; in the assay on COLO 205 colon, 30.6 µM; in the assay with SK-MEL-2 melanoma, 31.3 µM; with OVCAR-5 ovarian, 33.2 µM; with SF-268 CNS, 32.4 µM; with HCT-116 colon, 29.2 µM. Besides, the values for the TGI in the assay with UO-31 renal, in the assay with A549 NSCLC and in the assay on BT-549 breast were 25.9 µM, 47.2 µM and 30.5 µM, respectively.

As for `CCc1ccc2nccc(NCCCN(C)C)c2c1[N+](=O)[O-]`, the TGI in the assay with CCRF-CEM leukemia was more than 100 µM; with HS 578T breast, more than 100 µM; in the assay with COLO 205 colon it was 94.1 µM; with SK-MEL-2 melanoma, more than 100 µM; in the assay on OVCAR-5 ovarian, 90.8 µM; with SF-268 CNS it was more than 100 µM. For the same molecule, the TGI in the assay on HCT-116 colon, with UO-31 renal and in the assay with A549 NSCLC was more than 100 µM throughout.
